Measured values taken from PubChem BioAssay AID2060495 (Molecular Pharmacology Branch, DTP, NCI, 2025).

System: 521955-158-R2-J5-PDC complex spheroid viability
Test: Anticancer human tumor 521955-158-R2-J5-PDC patient-derived pancreatic carcinoma cell line growth inhibition [GQUAD]
Details: for IC50: curve of first compound; for viability, T/C: stronger effect = lower value
Summary of the method: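 Tumor cells were grown as complex spheroids with HUVEC endothelial cells and mesenchymal stem cells as stroma. G-quadruplex stabilizers were combined with targeted agents over half-log dilutions from near the clinical Cmax, or from 10 microM.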

[1] = second compound 0.0316 µM, first compound 0.0316 µM
[2] = second compound 0.0316 µM, first compound 0.1 µM
[3] = second compound 0.0316 µM, first compound 0.316 µM
[4] = second compound 0.0316 µM, first compound 1 µM
[5] = second compound 0.0316 µM, first compound 3.16 µM
[6] = second compound 0.0316 µM, first compound 10 µM
[7] = second compound 0.1 µM, first compound 0.0316 µM
[8] = second compound 0.1 µM, first compound 0.1 µM
[9] = second compound 0.1 µM, first compound 0.316 µM
[10] = second compound 0.1 µM, first compound 1 µM
[11] = second compound 0.1 µM, first compound 3.16 µM
[12] = second compound 0.1 µM, first compound 10 µM
[13] = second compound 0.316 µM, first compound 0.0316 µM
[14] = second compound 0.316 µM, first compound 0.1 µM
[15] = second compound 0.316 µM, first compound 0.316 µM
[16] = second compound 0.316 µM, first compound 1 µM
[17] = second compound 0.316 µM, first compound 3.16 µM
[18] = second compound 0.316 µM, first compound 10 µM
[19] = second compound 1 µM, first compound 0.0316 µM
[20] = second compound 1 µM, first compound 0.1 µM
[21] = second compound 1 µM, first compound 0.316 µM
[22] = second compound 1 µM, first compound 1 µM
[23] = second compound 1 µM, first compound 3.16 µM
[24] = second compound 1 µM, first compound 10 µM
[25] = second compound 3.16 µM, first compound 0.0316 µM
[26] = second compound 3.16 µM, first compound 0.1 µM
[27] = second compound 3.16 µM, first compound 0.316 µM
[28] = second compound 3.16 µM, first compound 1 µM
[29] = second compound 3.16 µM, first compound 3.16 µM
[30] = second compound 3.16 µM, first compound 10 µM
[31] = second compound 10 µM, first compound 0.0316 µM
[32] = second compound 10 µM, first compound 0.1 µM
[33] = second compound 10 µM, first compound 0.316 µM
[34] = second compound 10 µM, first compound 1 µM
[35] = second compound 10 µM, first compound 3.16 µM
[36] = second compound 10 µM, first compound 10 µM
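Further: spheroids exposed to agents for one week before reading.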
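Wherever viability, T/C is given: 100% = DMSO vehicle control viability.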

For `O=C(c1cc(Cc2n[nH]c(=O)c3ccccc23)ccc1F)N1CCN(C(=O)C2CC2)CC1` + Cc1cnc(CNC(=O)c2c(=O)c3ccc(N4CCCN(C)CC4)nc3n3c2sc2ccccc23)cn1, the IC50 (second compound 0.0316 µM) was greater than 10000 nM, the IC50 (second compound 0.1 µM) was 2860 nM and the IC50 (second compound 0.316 µM) was less than 31.6 nM. The IC50 (second compound 1 µM) was less than 31.6 nM, the IC50 (second compound 3.16 µM) was less than 31.6 nM and the IC50 (second compound 10 µM) was less than 31.6 nM. It also gave a viability, T/C [1] of 83.5%, a viability, T/C [2] of 56% and a viability, T/C [3] of 77.1%. The viability, T/C [4] was 64.4%, the viability, T/C [5] was 75.4% and the viability, T/C [6] was 59.7%. For the same compound, the viability, T/C [7] was 60.3%, the viability, T/C [8] was 63.5% and the viability, T/C [9] was 59.7%. For the same compound, the viability, T/C [10] was 52.9%, the viability, T/C [11] was 51.8% and the viability, T/C [12] was 32.5%. For the same compound, the viability, T/C [13] was 35.1%, the viability, T/C [14] was 50% and the viability, T/C [15] was 37.9%. For the same compound, the viability, T/C [16] was 36.9%, the viability, T/C [17] was 30.8% and the viability, T/C [18] was 24.1%. It also gave a viability, T/C [19] of 18%, a viability, T/C [20] of 19.9% and a viability, T/C [21] of 22.8%. The viability, T/C [22] was 23.9%, the viability, T/C [23] was 21.1% and the viability, T/C [24] was 16.1%. The viability, T/C [25] was 16.6%, the viability, T/C [26] was 19.6% and the viability, T/C [27] was 21.1%. The viability, T/C [28] was 15.9%, the viability, T/C [29] was 16.5% and the viability, T/C [30] was 13.9%. The viability, T/C [31] was 21.2%, the viability, T/C [32] was 18.9% and the viability, T/C [33] was 18.1%. The viability, T/C [34] was 18.2%, the viability, T/C [35] was 16.7% and the viability, T/C [36] was 12.1%.

With `CC1COCCN1c1cc(-c2ccnn2C)c2ccnc(-c3ccn[nH]3)c2n1` (stereo not drawn) + Cc1cnc(CNC(=O)c2c(=O)c3ccc(N4CCCN(C)CC4)nc3n3c2sc2ccccc23)cn1 the IC50 (second compound 0.0316 µM) was less than 31.6 nM, the IC50 (second compound 0.1 µM) was less than 31.6 nM and the IC50 (second compound 0.316 µM) was less than 31.6 nM. It also gave an IC50 (second compound 1 µM) of less than 31.6 nM, an IC50 (second compound 3.16 µM) of less than 31.6 nM and an IC50 (second compound 10 µM) of less than 31.6 nM. The viability, T/C [1] was 33.3%, the viability, T/C [2] was 10.8% and the viability, T/C [3] was 10.1%. The viability, T/C [4] was 11.2%, the viability, T/C [5] was 14.3% and the viability, T/C [6] was 20.8%. It also gave a viability, T/C [7] of 28.9%, a viability, T/C [8] of 12.6% and a viability, T/C [9] of 10.6%. The viability, T/C [10] was 10.2%, the viability, T/C [11] was 12.9% and the viability, T/C [12] was 15.9%. It also gave a viability, T/C [13] of 29.5%, a viability, T/C [14] of 16.6% and a viability, T/C [15] of 13.1%. The viability, T/C [16] was 11.2%, the viability, T/C [17] was 12% and the viability, T/C [18] was 14.7%. The viability, T/C [19] was 19.1%, the viability, T/C [20] was 14.2% and the viability, T/C [21] was 10.4%. It also gave a viability, T/C [22] of 9.64%, a viability, T/C [23] of 12.4% and a viability, T/C [24] of 10.6%. The viability, T/C [25] was 18.9%, the viability, T/C [26] was 12.2% and the viability, T/C [27] was 11.1%. The viability, T/C [28] was 8.14%, the viability, T/C [29] was 10.1% and the viability, T/C [30] was 8.5%. It also gave a viability, T/C [31] of 15.4%, a viability, T/C [32] of 12.7% and a viability, T/C [33] of 10.5%. For the same compound, the viability, T/C [34] was 10.9%, the viability, T/C [35] was 7.61% and the viability, T/C [36] was 8.53%.

Compound `CCc1c2c(nc3ccc(O)cc13)-c1cc3c(c(=O)n1C2)COC(=O)[C@]3(O)CC` + Cc1[nH]c2ccc(F)cc2c1-c1nc2c3cccnc3c3ncccc3c2[nH]1 has an IC50 (second compound 0.0316 µM) of 1.44 nM, an IC50 (second compound 0.1 µM) of 1.57 nM and an IC50 (second compound 0.316 µM) of 1.52 nM. For the same compound, the IC50 (second compound 1 µM) was 1.48 nM, the IC50 (second compound 3.16 µM) was 1.81 nM and the IC50 (second compound 10 µM) was 1.61 nM. For the same compound, the viability, T/C (second compound 0.0316 µM, first compound 0.000999 µM) was 66.5%, the viability, T/C (second compound 0.0316 µM, first compound 0.00316 µM) was 14.4% and the viability, T/C (second compound 0.0316 µM, first compound 0.00999 µM) was 8.08%. The viability, T/C [1] was 6.13%, the viability, T/C (second compound 0.0316 µM, first compound 0.0999 µM) was 5.29% and the viability, T/C [3] was 2.46%. For the same compound, the viability, T/C (second compound 0.1 µM, first compound 0.000999 µM) was 73.5%, the viability, T/C (second compound 0.1 µM, first compound 0.00316 µM) was 13.8% and the viability, T/C (second compound 0.1 µM, first compound 0.00999 µM) was 8.38%. The viability, T/C [7] was 6.85%, the viability, T/C (second compound 0.1 µM, first compound 0.0999 µM) was 5.08% and the viability, T/C [9] was 3.05%. For the same compound, the viability, T/C (second compound 0.316 µM, first compound 0.000999 µM) was 70.8%, the viability, T/C (second compound 0.316 µM, first compound 0.00316 µM) was 13.3% and the viability, T/C (second compound 0.316 µM, first compound 0.00999 µM) was 7.87%. The viability, T/C [13] was 5.41%, the viability, T/C (second compound 0.316 µM, first compound 0.0999 µM) was 5.92% and the viability, T/C [15] was 2.25%. The viability, T/C (second compound 1 µM, first compound 0.000999 µM) was 69.9%, the viability, T/C (second compound 1 µM, first compound 0.00316 µM) was 11.7% and the viability, T/C (second compound 1 µM, first compound 0.00999 µM) was 7.26%. For the same compound, the viability, T/C [19] was 5.78%, the viability, T/C (second compound 1 µM, first compound 0.0999 µM) was 5.91% and the viability, T/C [21] was 1.75%. It also gave a viability, T/C (second compound 3.16 µM, first compound 0.000999 µM) of 83.5%, a viability, T/C (second compound 3.16 µM, first compound 0.00316 µM) of 18.2% and a viability, T/C (second compound 3.16 µM, first compound 0.00999 µM) of 8.66%. For the same compound, the viability, T/C [25] was 7.44%, the viability, T/C (second compound 3.16 µM, first compound 0.0999 µM) was 3.96% and the viability, T/C [27] was 2.23%. The viability, T/C (second compound 10 µM, first compound 0.000999 µM) was 72.8%, the viability, T/C (second compound 10 µM, first compound 0.00316 µM) was 16.9% and the viability, T/C (second compound 10 µM, first compound 0.00999 µM) was 11.9%. For the same compound, the viability, T/C [31] was 8.45%, the viability, T/C (second compound 10 µM, first compound 0.0999 µM) was 5.37% and the viability, T/C [33] was 2.72%.

In the case of `O=c1[nH]cc(F)c(=O)[nH]1` + Cc1cnc(CNC(=O)c2c(=O)c3ccc(N4CCCN(C)CC4)nc3n3c2sc2ccccc23)cn1, the IC50 (second compound 0.0316 µM) is reported as 1190 nM, the IC50 (second compound 0.1 µM) is reported as 1540 nM and the IC50 (second compound 0.316 µM) is reported as less than 31.6 nM. The IC50 (second compound 1 µM) was less than 31.6 nM, the IC50 (second compound 3.16 µM) was less than 31.6 nM and the IC50 (second compound 10 µM) was less than 31.6 nM. For the same compound, the viability, T/C [1] was 88.7%, the viability, T/C [2] was 70.5% and the viability, T/C [3] was 76.8%. The viability, T/C [4] was 51.6%, the viability, T/C [5] was 31.6% and the viability, T/C [6] was 16.7%. For the same compound, the viability, T/C [7] was 65.2%, the viability, T/C [8] was 56.2% and the viability, T/C [9] was 56.5%. The viability, T/C [10] was 62.2%, the viability, T/C [11] was 33.4% and the viability, T/C [12] was 22.4%. For the same compound, the viability, T/C [13] was 36.7%, the viability, T/C [14] was 56.3% and the viability, T/C [15] was 30.3%. It also gave a viability, T/C [16] of 31%, a viability, T/C [17] of 20.2% and a viability, T/C [18] of 17.8%. The viability, T/C [19] was 23.2%, the viability, T/C [20] was 22.5% and the viability, T/C [21] was 20.1%. For the same compound, the viability, T/C [22] was 16.6%, the viability, T/C [23] was 17.8% and the viability, T/C [24] was 14.1%. It also gave a viability, T/C [25] of 18.1%, a viability, T/C [26] of 19.5% and a viability, T/C [27] of 17.8%. It also gave a viability, T/C [28] of 19.1%, a viability, T/C [29] of 17% and a viability, T/C [30] of 11.7%. The viability, T/C [31] was 18.7%, the viability, T/C [32] was 21.7% and the viability, T/C [33] was 17.3%. The viability, T/C [34] was 14.2%, the viability, T/C [35] was 15.5% and the viability, T/C [36] was 12.1%.
